“Also recorded” adds a separate entry of the source. Like-named read-outs stand apart in the source and are kept apart here.
Tests used:
cryo-injured LV wall = conditions: cited from earlier work; for LV function: 8 week time course; for Cx43 in myocytes bordering the injury: mouse, in vivo; for arrhythmias: pacing and S1-S2 protocols
[1] = aqueous solutions; cited from earlier work
cornea = conditions: rat, in vivo; cited from earlier work
[2] = tested on: U87 MG glioblastoma cells; conditions: cited from earlier work
[3] = tested on: human MGMT-deficient and TMZ-resistant GBM cells; conditions: cited from earlier work
heart allograft = conditions: 100 μM in UW solution, cited from earlier work
Cx43-Hela cells [4] = assay: Cx43 and ZO-1 immunofluorescent labeling; type: cell-based; conditions: 10 μM for 2, 4, 24, or 48 hours
Description: Given that the 10UM concentration of peptide was not toxic to cells, the inventors treated Cx43-Hela cells with 10 μM JM1 or JM2 for 2, 4, 24, or 48 hours followed by fixation and immunofluorescent labeling of Cx43 and ZO-1. Said peptides can be loaded into the provided EVs and can elicit results similar to those observed for naked peptide as follows. […] However, the most striking effects were on ZO-1 organization. In control cells ZO-1 localized to cell borders, often at sites of small, finger-like projections between the cells. Cytoplasmic ZO-1 was also notable. In JM-treated cells a strong contrast in the ratio of cell border to cytoplasmic ZO-1 was found, with relative levels at cell borders being increased over controls. […] There was also a noticeable increase in the number of cells per area of field, supporting the earlier observation that JM2 treated cells appeared to proliferate and survive at an increased rate.

silicone implant = assay: Silicone implants coated with JM2; type: in vivo, rat; conditions: 180 micomolar in 25% pluronic gel
Description: 25% pluronic F127 gel (Sigma-Aldrich, St. Louis, MO 63103), which is liquid at 4° C., but gels at 37° C., was used as a delivery vehicle for JM2 peptide. Pluronic gel has mild surfactant properties that aid in peptide dispersion. The JM2 peptide was reconstituted in IX PBS containing the 25% pluronic gel to a final concentration of 180 micomolar.
Animals were anesthetized with 2.75% isoflurane balance oxygen gas. After achievement of general anesthesia, the surgical site consisting of the animal's upper back was prepped by clipping fur down to skin and applying betadine scrub solution in triplicate. Sterile towels were draped to define the surgical field. PWAS Silicone sensors (5 mm diameter) were autoclave sterilized and warmed to 37° C. prior to implantation. For the treatment group, implants were dipped twice in JM2 pluronic solution prior to implantation. For the vehicle control group, the implants were dipped in saline only. This coating procedure produced an even coating of the implant. A muscle pocket was created under the latissimus dorsi muscle and implants were inserted. 50 μL of the corresponding solution was also injected into the muscle pocket prior to closure. The muscles were reapproximated with 4-0 Prolene (Ethicon Inc, Somerville, NJ 08876) and the skin closed with 4-0 Prolene and skin staples. […]

cancer stem cells CSCs = conditions: CSCs derived from patient tumors; cited from earlier work
Cx43-Hela cells [5] = conditions: cited from earlier work
silicon wafer implants = conditions: 24 hours; cited from earlier work

Row | Sequence | LV function (cryo-injured LV wall) | LV function (cryo-injured LV wall; listed as ACTI) | Cx43 in myocytes bordering the injury (cryo-injured LV wall) | Cx43 in myocytes bordering the injury (cryo-injured LV wall; listed as ACTI) | arrhythmias (cryo-injured LV wall) | arrhythmias (cryo-injured LV wall; listed as ACTI) | period of slow release of detectable levels of peptide [1] | corneal closure and regeneration (cornea) | aggregation [2] | sensitivity to TMZ [3] | Evan's Blue sequestration into the transplanted heart (heart allograft; 6 h at 4° C., 30 mins post reperfusion) | graft injury, serum cardiac troponin I, neutrophils (heart allograft; 6 hrs at 4° C.) | Cx43 and ZO-1 localization (Cx43-Hela cells [4]) | healing, capsule formation, scarring and fibrosis (silicone implant) | inflammation and skeletal muscle necrosis (silicone implant) | CSC survival (cancer stem cells CSCs) | Cx43 GJ labeling (Cx43-Hela cells [5]; 10 μM for 2, 6, and 24 hrs) | microtubule organization (Cx43-Hela cells [5]; 2 hr) | tissue reaction zone (silicon wafer implants)
1 | RQPKIWFPNRRKPWKKRPRPDDLEI [alpha CT1] | sustained improvements in ventricular contractile performance over an 8-week study period | significant improvement in LV diastolic and systolic function | reduced Cx43 GJ remodeling in injury border zone tissues | higher and more uniform, intercalated-disk-localized and pS368 phosphorylated Cx43 | decreased propensity of the injured hearts to develop inducible arrhythmias | dramatically reduced (p<0.05) frequency and severity of arrhythmias | at least 7 days | faster closure and more complete corneal regeneration than control corneas | higher degree of aggregation | sensitized human MGMT-deficient and TMZ-resistant GBM cells to TMZ treatment | significantly reduces Evan's Blue sequestration into the transplanted heart | significantly reduced cardiac injury, reduced serum cardiac troponin I and significantly reduced neutrophils |  |  |  |  |  |  | 
2 | VFFKGVKDRVKGRSD [JM2] |  |  |  |  |  |  |  |  |  |  |  |  | greater cytoplasmic Cx43 was observed; also recorded: well defined cell-cell interfaces | improved healing and decreased capsule formation, scarring and fibrosis | decreased inflammation and reduced skeletal muscle necrosis | decreases CSC survival in vitro and in vivo | displayed little GJ labeling; also recorded: GJ labeling began to return at 6 hrs, and appeared normal after 24 hrs | disruption of microtubule organization | substantially narrower tissue reaction zone

Source: patent publication US20250221936A1, “ENGINEERED HEMICHANNELS, ENGINEERED VESICLES, AND USES THEREOF” (VIRGINIA TECH INTELLECTUAL PROPERTIES, INC., priority 2018, published 2025)
